Measured values as given in US10053667B2, “Differentiation of human pluripotent stem cells to multipotent neural crest cells” (UNIVERSITY OF GEORGIA RESEARCH FOUNDATION, INC., priority 2010, dated 2018).
“Also recorded” adds a separate entry of the source.

What was measured:
Assay type in all cases: cell-based, human
β-catenin signaling = experiment: Top-Flash luciferase reporter assay for β-catenin activity in hESCs; conditions: hESC cultures; Top-Flash normalized to Fop-Flash
Procedure: Data is expressed as the fold-increase in luciferase activity over untreated cells after normalization to the Fop-Flash control. All assays were performed in triplicate and represented as +/−standard deviation. (B) Top-Flash activity in hESCs grown in defined media treated with Wnt3a, Dkk1, Wnt3a and Dkk1 or BIO. Experiments were performed in triplicate and represented as +/−standard deviation.

WA09 hESCs [1] = experiment: hESC differentiation to neural crest-like versus neural progenitor cells, flow cytometry for p75 and Hnk1; conditions: for generation of Hnk1+ p75+ (Hnk1bright p75bright) neural crest-like population: WA09 hESCs treated 15 days, FIG. 2A, factors added to or omitted from SB 431542/BIO media; for proportion of Hnk1bright p75bright cells: dose-response, added to cultures treated with SB 431542 and Noggin, BIO 0-2 µM, Wnt3a 0-50 ng/ml
Procedure: (§1) NPC differentiation was performed as described (18). Briefly, cells were plated on Geltrex-coated plates in defined media without Activin A, supplemented with 20 μM SB 431542 (Tocris) and 500 ng/ml Noggin (R&D systems) for 11 days with or without 2 μM of (2′Z,3′E)-6-Bromoindirubin-3′-oxime (BIO) (GSK3 Inhibitor IX, Calbiochem), or 15 ng/ml Dickkopf (R&D Systems). For direct neural crest differentiation, cells were plated at a density of 1×10^5 cells/cm^2 in defined media lacking Activin A, supplemented with 2 μM BIO and 20 μM SB 431542 (SB media). Media was replaced every day. Additional experiments were performed by adding 25 ng/ml Wnt3a, 500 ng/ml Noggin or 5-50 ng/ml of BMP4 (R&D Systems) to SB media. For peripheral neuron differentiation, neural crest cells were plated in poly-L-ornithine/laminin or Geltrex-coated 4-well chamber slides. The following day, SB media was switched to DMEM/F12 N2 supplemented media with BDNF (10 ng/ml), GDNF (10 ng/ml), NGF (10 ng/ml), neurotrophin-3 (10 ng/ml), ascorbic acid (200 μM) and dbcAMP (0.5 mM). Cells were grown for 10-14 days and assayed by immunocytochemisty. Neural crest cells were cultured in media containing 10% fetal bovine serum and passed every 4-5 days. Osteocyte, adipocyte and chondrocyte differentiation was performed according to manufacturer directions using StemPro Osteogenesis Kit, StemPro Chondrogenesis Differentiation Kit, StemPro Adipogenesis Differentiation Kit (Invitrogen), respectively.
Cells were fixed in 4% paraformaldehyde in phosphate buffered saline (PBS) and stained with primary antibodies listed in attached Table 1 (below). Secondary antibodies were Alexa Fluor 488 and Alexa Fluor 555-conjugated (Invitrogen). DNA was visualized by staining with DAPI. For flow cytometry, one million live cells dissociated with Accutase were re-suspended in PBS and incubated for 30 minutes on ice with primary conjugated antibodies, listed in Table 1. Unconjugated p75 (neurotrophin receptor) and Hnk1 antibodies were detected with Alexa Fluor 633 and Alexa Fluor 488-conjugated secondary antibodies, respectively. Cells were analyzed using the CyAN ADP (Beckman Coulter) and FlowJo software.

WA09 hESCs [2] = experiment: hESC differentiation, immunostaining for neural crest markers (p75, Ap2, Hnk1) and NPC markers (Pax6, Sox2)
Procedure: as §1, with “Briefly, cells were plated on Geltrex-coated plates in defined media without Activin A, supplemented with 20 μM SB 431542 (Tocris) and 500 ng/ml Noggin (R&D systems) for 11 days with or without 2 μM of (2′Z,3′E)-6-Bromoindirubin-3′-oxime (BIO) (GSK3 Inhibitor IX, Calbiochem), or 15 ng/ml Dickkopf (R&D Systems). For direct neural crest differentiation, cells were plated at a density of 1×10^5 cells/cm^2 in defined media lacking Activin A, supplemented with 2 μM BIO and 20 μM SB 431542 (SB media).” left out
Cells were fixed in 4% paraformaldehyde in phosphate buffered saline (PBS) and stained with primary antibodies listed in attached Table 1 (below). […] DNA was visualized by staining with DAPI. For flow cytometry, one million live cells dissociated with Accutase were re-suspended in PBS and incubated for 30 minutes on ice with primary conjugated antibodies, listed in Table 1. […] Cells were analyzed using the CyAN ADP (Beckman Coulter) and FlowJo software.

[3] = BIO added to SB 431542 and Noggin (Smad inhibition), 12 days

## O=C1Nc2cc(Br)ccc2/C1=C1/Nc2ccccc2/C1=N\O [BIO, (2′Z,3′E)-6-Bromoindirubin-3′-oxime]
β-catenin signaling
  activation of β-catenin-dependent luciferase reporter (canonical Wnt pathway): activates β-catenin signaling; also recorded: efficiently activates the canonical Wnt pathway
WA09 hESCs [1]
  generation of Hnk1+ p75+ (Hnk1bright p75bright) neural crest-like population: ineffective
  proportion of Hnk1bright p75bright cells: increased the proportion of Hnk1^bright p75^bright cells in a dose-dependent manner
WA09 hESCs [2]; [3]
  formation of Pax6+ cells: suppresses this; also recorded: severely inhibited the formation of Pax6^+ cells
  percentage of p75+ cells: generates p75+ Pax6− neural crest-like cells; also recorded: markedly increasing the percentage of p75^+ cells
WA09 hESCs [2]; immunostaining, Smad signaling suppressed, range of BIO concentrations
  Sox2 expression: dose-dependent response

## NC(=O)c1ccc(-c2nc(-c3ccc4c(c3)OCO4)c(-c3ccccn3)[nH]2)cc1 [SB 431542]
WA09 hESCs [1]
  generation of Hnk1+ p75+ (Hnk1bright p75bright) neural crest-like population: ineffective

B1: Dickkopf: a Wnt antagonist (R&D Systems) (protein, UniProt O94907 32-266, looked up)
Dickkopf-related protein 1: TLNSVLNSNAIKNLPPPLGGAAGHPGSAVSAAPGILYPGGNKYQTIDNYQPYPCAEDEECGTDEYCASPTRGGDAGVQICLACRKRRKRCMRHAMCCPGNYCKNGICVSSDQNHFRGEIEETITESFGNDHSTLDGYSRRTTLSSKMYHTKGQEGSVCLRSSDCASGLCCARHFWSKICKPVLKEGQVCTKHRRKGSHGLEIFQRCYCGEGLSCRIQKDHHQASNSSRLHTCQRH
WA09 hESCs [1]; NPC cultures obtained by treatment with Noggin and SB 431542
  p75bright cells in NPC cultures: decreases the p75bright population; also recorded: severely reduced the low level of p75^bright cells

B2: Wnt3a: recombinant Wnt protein, Wnt signaling promoter (protein, UniProt P56704 19-352, looked up)
Protein Wnt-3a: SYPIWWSLAVGPQYSSLGSQPILCASIPGLVPKQLRFCRNYVEIMPSVAEGIKIGIQECQHQFRGRRWNCTTVHDSLAIFGPVLDKATRESAFVHAIASAGVAFAVTRSCAEGTAAICGCSSRHQGSPGKGWKWGGCSEDIEFGGMVSREFADARENRPDARSAMNRHNNEAGRQAIASHMHLKCKCHGLSGSCEVKTCWWSQPDFRAIGDFLKDKYDSASEMVVEKHRESRGWVETLRPRYTYFKVPTERDLVYYEASPNFCEPNPETGSFGTRDRTCNVSSHGIDGCDLLCCGRGHNARAERRREKCRCVFHWCCYVSCQECTRVYDVHTCK
WA09 hESCs [1]
  generation of Hnk1+ p75+ (Hnk1bright p75bright) neural crest-like population: can substitute for BIO
  proportion of Hnk1bright p75bright cells: increased the proportion of Hnk1^bright p75^bright cells in a dose-dependent manner

B3: Noggin: BMP inhibitor protein (R&D systems) (protein, UniProt Q13253 28-232, looked up)
Noggin: QHYLHIRPAPSDNLPLVDLIEHPDPIFDPKEKDLNETLLRSLLGGHYDPGFMATSPPEDRPGGGGGAAGGAEDLAELDQLLRQRPSGAMPSEIKGLEFSEGLAQGKKQRLSKKLRRKLQMWLWSQTFCPVLYAWNDLGSRFWPRYVKVGSCFSKRSCSVPEGMVCKPSKSVHLTVLRWRCQRRGGQRCGWIPIQYPIISECKCSC
WA09 hESCs [1]
  generation of Hnk1+ p75+ (Hnk1bright p75bright) neural crest-like population: no major impact

B4: BMP4: bone morphogenic protein added to SB media (R&D Systems) (protein, UniProt P12644 293-408, looked up)
Bone morphogenetic protein 4: SPKHHSQRARKKNKNCRRHSLYVDFSDVGWNDWIVAPPGYQAFYCHGDCPFPLADHLNSTNHAIVQTLVNSVNSSIPKACCVPTELSAISMLYLDEYDKVVLKNYQEMVVEGCGCR
WA09 hESCs [1]
  generation of Hnk1+ p75+ (Hnk1bright p75bright) neural crest-like population: suppressed the transition to an Hnk1^bright p75^bright state
